The results in this text go back to patent publication US20100184771A1, “Bicyclic Heterocyclic Compound” (ONO PHARMACEUTICAL CO., LTD., priority 2005, published 2010).

In assay [1] the target is T1, human CRF receptor I (Homo sapiens, UniProt P34998).
T1 construct: expressed in transfected cells; host or cells: CHO-K1
T1 sequence (P34998 24-415): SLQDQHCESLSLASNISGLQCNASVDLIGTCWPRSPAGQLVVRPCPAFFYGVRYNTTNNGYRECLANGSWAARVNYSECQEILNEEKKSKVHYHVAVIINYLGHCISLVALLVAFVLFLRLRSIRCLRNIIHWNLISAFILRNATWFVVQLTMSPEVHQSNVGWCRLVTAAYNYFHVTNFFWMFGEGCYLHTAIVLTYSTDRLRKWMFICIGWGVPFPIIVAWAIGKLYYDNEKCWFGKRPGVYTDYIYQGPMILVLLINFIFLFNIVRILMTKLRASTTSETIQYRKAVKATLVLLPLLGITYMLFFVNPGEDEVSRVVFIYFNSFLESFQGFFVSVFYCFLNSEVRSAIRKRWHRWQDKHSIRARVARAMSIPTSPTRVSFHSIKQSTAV
Description: Receptor antagonistic activity (cyclic AMP assay). It counts as cell-based. The note with it: human/rat CRF stimulation, 37° C., 15 minutes; read-out: IC50 value, antagonistic activity against CRF (accumulated cyclic AMP). The protocol:
The forced expression cell strain of the human CRF receptor I was cultured at 37° C. under 5% carbon dioxide and 95% air by using a Ham's F-12 medium (F-12 nutrient mixture) containing 10% bovine fetal serum and 1% antibiotic substance-antifungal agent. On the previous day before the cyclic AMP was measured, the cells were inoculated into a 96-well plate in an amount of 1×10^4 cell/well. On the measurement day, the cells were washed twice with a Ham's F-12 medium, whereby a solution of Ham's F-12 medium/1 mM 3-isobutyl-1-methylxanthine (assay medium) (178 μL) was added to each well. After the incubation at 37° C. for 10 minutes, test drug solutions (2 μL) in various concentrations were added thereto, or DMSO (2 μL) was added to a CRF group and a blank group. An assay medium (20 μL) containing 10 nM human/rat CRF was added to wells of a compound group and the CRF group. An assay medium (20 μL) containing 0.00001% acetic acid was added to the blank group. Each group was further incubated at 37° C. for 15 minutes. […] The accumulated cyclic AMP amounts were calculated by subtracting mean values of corresponding 2 wells in the blank group from that of 2 wells. The IC50 values were calculated with non-linear regression analysis by defining logarithm concentration of the compound as independent variable and an accumulated cyclic AMP amount as dependent variable.

The target in assay [2] is T1, human CRF receptor I. Description: Binding assay (125I-CRF, membrane fraction of CHO-K1 cells with forced expression of the receptor). The conditions noted are these: 125I-CRF 0.25 nM, room temperature, 2 hours. As for the experimental part:
The forced-expression cell strain of the human CRF receptor I (parent strain is CHO-K1 cell) was cultured until the cell was confluent and collected with a scraper. The collected cells were washed twice with PBS, and were suspended with an ice-colded binding assay buffer (Tris-HCl (50 mM, pH 7.0), EDTA (2 mM, pH 8.0), and MgCl2 (10 mM)). After fractured with a dounce-type homogenizer, the suspended cells were centrifuged at 10,000 g, and a membrane fraction was collected. The collected membrane fraction was resuspended with a little amount of the binding assay buffer, thereafter diluted with the binding assay buffer so as to have a concentration of 1 mg/mL. The obtained membrane fraction was used for a binding assay.
^125I-CRF was diluted with the binding assay buffer so as to have a concentration of 0.5 nM, whereby 50 μL of the diluted ^125I-CRF was added to a siliconized 1.5-mL tube. Next, test drugs diluted at appropriate times, such as DMSO (for general binding) or 100 μM of CRF (for non-specific binding), was added to a […]. Finally, 50 μL of the membrane fraction was added thereto and the reaction was started (final concentration of ^125I-CRF was 0.25 nM). The tube was incubated at room temperature for 2 hours. […] A membrane binding count was measured using a γ counter. The specific binding count was obtained by subtracting the non-specific count from the measured count.

For the next assay, the system named is swim-stressed SD rat. Description: Elevated plus maze test with swim-stressed rat. Format: in vivo. The note with it: orally, 1 hour before the test. The protocol:
2 open arms with the same lengths (50×10 cm) and 2 close arms (a 30 cm wall was provided) with the same lengths (50×10 cm) were arranged in orthogonal manner at a height of 50 cm from the floor to provide an elevated crossroad maze system. In 70 cm above the both open arms, white light was provided, whereby illuminance was maintained at constant.
A 7-week-old SD rat (CHARLES RIVER LABORATORIES JAPAN) was forcedly made to swim for 120 seconds in a pool (40×30×38 cm) at 22° C. of water temperature and 25 cm of water depth. After 9 minutes of soaking stress loading, the rat was put on the center of the system. The activity for 5 minutes of the rat was analyzed with an automatic activity-tracking analysis system (EthoVision Version 3.0, Noldus Information Technology) to calculate the dwell time (second) on the open arm.
Note that no soaking stress was loaded on the control group. In addition, 20% Solutol/HS15 (5 mL/Kg) was orally administered to the vehicle group and test drugs in various concentrations were orally administrated to the test drug administration group 1 hour before the test.

`CCC(CC)c1cc(C)n2nc(-c3ccc(OC)cc3C)c(C)cc12` [Example 8, 5-(1-ethylpropyl)-2-(4-methoxy-2-methylphenyl)-3,7-dimethylpyrrolo[1,2-b]pyridazine]: the results for the IC50 at human CRF receptor I [1] and at human CRF receptor I [2] were 4.9 nM and 16.4 nM, respectively. Moreover, the “dwell time on the open arm compared to that of the vehicle group” value in the assay on swim-stressed SD rat (10 mg/kg) and in the assay on swim-stressed SD rat was “favorably elongated the dwell time on the open arm” throughout.

As usually defined, the IC50 is the point on the concentration scale where inhibition reaches its midpoint.
